One test concerns HO-1 protein. As to the kind of experiment: Renal cortical HO-1 protein (ELISA) after FeS, SnPP, B12. It is filed as in vivo, CD-1 mice. Particulars: for HO-1 protein increases (FIG. 21): 4 hrs and 18 hrs after IV injection. The protocol:
Effects of FeS, SnPP, and B12 on renal cortical induction of heme oxygenase 1(HO-1). The following experiments assessed the effects of FeS, SnPP, and B12 on the possible induction of the cytoprotective protein HO-1. To this end, mice were injected with each of these agents, as noted above. Either 4 or 18 hrs later, they were anesthetized and the kidneys were removed through a midline abdominal incision. The renal cortices were dissected on ice and then extracted for protein and mRNA. The samples were then assayed for HO-1 protein by ELISA, and HO-1 mRNA by RT-PCR, factored by GAPDH levels. Five normal mice provided control values.
A general note: ELISA stands for enzyme-linked immunosorbent assay.

The next test concerns ferritin heavy chain. The test can be described thus: Kidney ferritin heavy chain expression (Western blotting). It is filed as in vivo, mice. Particulars: 18 hrs following 1 umole SnPP, 1 mg FeS or combined. Here is the method: FIG. 32. Ferritin heavy chain expression (as determined by Western blotting) in kidneys 18 hrs following 1 umole tin protoporphyrin (SnPP), 1 mg Fe sucrose (FeS) or combined SnPP+FeS treatment.
On the technique in general: In western blotting, separated proteins are transferred to a membrane and probed.

The test system of a further test is maleate model of AKI. As to the kind of experiment: Maleate model of AKI (800 mg/Kg), FeS/SnPP and FeS/B12. The settings on record: IV 18 hrs before 800 mg/Kg maleate; 18 hrs post maleate; 1 mg FeS, 1 μmole SnPP or B12. It counts as in vivo, CD-1 mice. An excerpt: Effects of Fe sucrose (FeS)/tin protoporphyrin (SnPP) on AKI severity. Maleate model of AKI. When injected into rodents, maleate undergoes relatively selective proximal tubule cell uptake via organic anion transporters. Once intracellular accumulation occurs, maleate is a preferred substrate for succinyl-CoA:3-oxoacid CoA transferase. […] Ample levels of CoA are essential for fatty acid “activation”, allowing for their subsequent metabolism through the Krebs cycle, yielding ATP. In the absence of this process, proximal tubule ATP depletion and cell injury result. Additionally, maleate conjugates the sulfhydryl group of glutathione (GSH), culminating in GSH depletion and potential oxidant tubular stress.
The following experiment tested whether FeS, SnPP or combined FeS+SnPP can mitigate this form of acute kidney injury (AKI). Twenty seven mice were subjected to 200 μL IV tail injections of one of the following: 1) vehicle (phosphate buffered saline, PBS; n, 10); 2) 1 mg FeS (American Regent (Shirley, N.Y.; n, 3); 3) 1 μmole SnPP (Frontier Scientific, Logan, Utah; n 7), or FeS+SnPP, n, 7). […] The severity of kidney injury was assessed by determining plasma blood urea nitrogen (BUN) and plasma creatinine (PCr) concentrations.
Maleate model of AKI. […] The severity of AKI was determined 18 hrs post maleate injection by terminal BUN and PCr assessments.

Consider cyanocobalamin [B12], for which the “HO-1 protein increases (FIG. 21)” value with HO-1 protein is “marked HO-1 protein increases within 4 hrs and persists for 18 hrs”.
Turning to iron sucrose [FeS], in the test on ferritin heavy chain, the “Ferritin heavy chain protein levels in kidney” value was “strong ferritin inducer”. Besides, the “HO-1 protein increases (FIG. 21)” value with HO-1 protein is “marked HO-1 protein increases within 4 hrs and persists for 18 hrs”. Moreover, the “Renal cortical HO-1 protein levels” value in the test on HO-1 protein (18 hr time point) was “remained elevated at the 18 hr time point, particularly in the case of FeS administration”. For the same substance, in the test on maleate model of AKI, the “Severity of maleate-induced AKI (BUN/PCr), in words” value is listed as “Neither SnPP alone nor FeS alone significantly altered the severity of renal injury”.
